Results from patent US5847047A, “Antimicrobial composition of a polymer and a peptide forming amphiphilic helices of the magainin-type” (priority 1995, dated 1998).
Where a SMILES comes first, the peptide text is derived from it. Where no end group is shown, it is not given here.

Experiments:
E. coli [1] = experiment: Shake flask method for peptides covalently bound to polyamide resin (CFU count); type: cell-based; details: for MIC E. coli: concentration of oligopeptide immobilized on PepsynK resin via EDA linker, shake flask, phosphate buffer pH 7.2, 37° C.; for % Reduction E. coli: immobilized peptide on EDA-PepsynK, determined as described in Example 9
Experimental: (§1) Occasionally, a shake flask method was employed for insoluble articles. In the shake flask method, 75 mL of 0.6 mM phosphate buffer, pH 7.2 and 0.100 mL of the stock cell culture and the oligopeptide sample were added to a 250 mL polystyrene tissue culture flask. The flasks were incubated in a shaking water bath at 37° C. At specified times (1 hour and 24 hours), an aliquot (0.100 mL) was removed from the shake flask and serial dilutions ranging from 10 to 1000-fold were made to allow the enumeration of cells on agar plates. Each agar plate was inoculated with 0.200 mL of the diluted cell suspension, and the suspension was uniformly spread on the plate. Colony-forming units CFU on the agar plates were counted after 24 hours in an incubator (37° C.). Cells were identified by visual observation and use of a colony counter. Total CFU/mL was determined by correcting the cell count for the dilution factor.
Samples of peptides corresponding to the amino acid sequences SEQ ID NO:8, SEQ ID NO:13, SEQ ID NO:14, SEQ ID NO:15 and SEQ ID NO:1, were covalently linked to the polyamide resin PepSyn K as described in Example 10 and were tested for antimicrobial activity. Five compositions (PEPSYNK-LKP, PEPSYNK-LKPGK, PEPSYNK-LKPG2 K, PEPSYNK-LKPG3 K, and PEPSYNK-KGLKP) were tested over a range of 0 to 5 mg/ml of oligopeptide. Since the covalently linked oligopeptide/polymer compositions were insoluble, the protocol for testing antimicrobial activity was modified from that for the soluble peptide compositions of Example 2. Here, a shake flask method was employed.
as §1, with “In” for “Occasionally, a shake flask method was employed for insoluble articles. In”, “oligopeptide samples, ranging from 0 to 5 mg/ml of oligopeptide” for “oligopeptide sample”, “dilutions were made” for “dilutions”, “1000-fold” for “1000-fold were made”, “enumeration or” for “enumeration of”, “factor. In this manner the minimal inhibitory concentration (MIC) of oligopeptide for covalently linked compositions corresponding to PEPSYNK-LKP, PEPSYNK-LKPGK, PEPSYNK-LKPG2 K, PEPSYNK-LKPG3 K, and PEPSYNK-KGLKP were determined.” for “factor.”
The bactericidal activity for each immobilized peptide was determined as described in Example 9. The structures and the bactericidal activities of the immobilized peptides are shown in Table V. The relative activities against E. coli are consistent with what is known about the soluble peptides. […] The reverse magainin is a much poorer bactericide than its normal sequence.

S. aureus = experiment: Antimicrobial activity of soluble oligopeptides, microtiter growth inhibition (MIC); type: cell-based; details: soluble peptide, LB broth, 37° C.
Experimental: (§2) The term "MIC" refers to minimal inhibitory concentration and will be defined as the lowest concentration of either soluble peptide or peptide immobilized on a polymer that results in total kill of bacteria.
(§3) Typically, assays for antimicrobial activity of soluble oligopeptide compositions were carried out in microtiter wells. Each well was charged with 150 μl of LB broth containing cells at a final concentration of between 1×10^6 to 1×10^7 cells/ml and oligopeptide at final concentrations of 1×10^-3 to 1×10^-6 M. It is preferred that the oligopeptides be dissolved in water prior to addition to the assay medium and that cells be inoculated from mid-log phase cultures. […] Cultures showing cell growth inhibition were incubated for an additional 15 hr. at which time a final absorbance reading was taken. FIGS. 4a-d illustrate the cell growth inhibition of E. coli cultures incubated in the presence of various oligopeptides.
(§4) All manipulations with microorganisms involved the application of standard sterile techniques employed in microbiology. All cells were grown at 37° C. Cell concentration was measured by optical density measurements at 600 nm in a Perkin Elmer Model 552 UV/VIS spectrophotometer. The microorganisms used were strains of E. coli. and S. aureus. On the day prior to the assay, an overnight culture was prepared. On the following morning, the stationary phase cells were subcultured and allowed to grow to mid-log phase.
(§5) Each well was charged with LB Broth (150 mcL). The oligopeptide samples were dissolved in water and were added to achieve the appropriate final oligopeptide concentrations (ranging from 1×10^-3 to 1×10^-6 M) Finally, cells suspended in LB medium were added to a final concentration of between 1×10^6 to 1×10^7 cells/mL. The microtiter plate was covered and allowed to gently rotate in an orbital shaker. […] Control samples used for all experiments were: (a) LB broth only=uninoculated control; (b) LB broth only+cells=inoculated control.

E. coli [2] = experiment: as above; type: cell-based; details: soluble peptide, LB broth, 37° C.
Experimental: as §2, §3, §4, §5
In FIGS. 4a-d cell growth inhibition is plotted as molar concentration of antimicrobial peptide as a function of the number of cells killed/ml. FIG. 4a-d illustrates the activity of the core oligopeptide, the N-addition analogue of formula II, the N-addition analogue of formula III, and the N-addition analogue of formula IV, respectively. All cultures were actively growing in log-phase and at a cell concentration of 2.0×10^7 cells/ml.

Experimental for human erythrocytes: A 5.0% stock cell solution of human erythrocytes in phosphate buffered saline (PBS) was prepared by suspending 2.0 mL packed human erythrocytes in 38 mL of phosphate buffered saline (10 mM sodium phosphate, 120 mM sodium chloride, 2.7 mM potassium chloride, pH 7.5). Samples of the four compositions recited above were added to microfuge tubes containing 0.5 mL of cell solution and 0.5 mL of PBS. Upon addition of sample, the vials were capped, gently homogenized, then allowed to gently shake in an incubator at 37° C. for 30 minutes. The samples were centrifuged to sediment the cells. The supernatants were transferred to cuvettes and the absorbances at 414 nm were read in a Perkin Elmer 552 spectrophotometer. The 0 and 100% hemolysis controls were PBS and PBS +1.0% Triton X-100, respectively.

| Molecule | % Hemolysis at >6 mg/mL (human erythrocytes) [%] | MIC E. coli (E. coli [1]) [µg/mL] | Minimal Inhibitory Concentration S. aureus (S. aureus) [µg/mL] | Minimal Inhibitory Concentration E. coli (E. coli [2]) [µg/mL] | % Reduction E. coli (E. coli [1]) [%] |
| --- | --- | --- | --- | --- | --- |
| Pepsynk-LKP: peptide SEQ ID NO:8 covalently linked to polyamide resin PepSyn K via non-cleavable EDA linker (LKKLLKLLKKLLKL; also: covalently linked to PepSyn K resin via EDA linker) | 0.9 | 807 | – | – | – |
| PepsynK-LKPGK: peptide SEQ ID NO:13 covalently linked to polyamide resin PepSyn K via non-cleavable EDA linker (LKLLKKLLKLLKKLGK; also: covalently linked to PepSyn K resin via EDA linker) | 0.7 | 2213 | – | – | – |
| CC(C)C[C@H](NC(=O)[C@H](CCCCN)NC(=O)[C@H](CC(C)C)NC(=O)[C@H](CC(C)C)NC(=O)[C@H](CCCCN)NC(=O)[C@H](CCCCN)NC(=O)[C@H](CC(C)C)NC(=O)[C@H](CC(C)C)NC(=O)[C@H](CCCCN)NC(=O)[C@H](CC(C)C)NC(=O)[C@H](CC(C)C)NC(=O)[C@H](CCCCN)NC(=O)[C@H](CCCCN)NC(=O)[C@@H](N)CC(C)C)C(=O)O [Formula I] (H-LKKLLKLLKKLLKL-OH) | – | – | 31.2 | 15.6 | – |
| PepsynK-LKPG2K: peptide SEQ ID NO:14 covalently linked to polyamide resin PepSyn K via non-cleavable EDA linker (LKLLKKLLKLLKKLGGK; also: covalently linked to PepSyn K resin via EDA linker) | 1.2 | 1208 | – | – | – |
| CC(C)C[C@H](NC(=O)[C@H](CCCCN)NC(=O)[C@H](CC(C)C)NC(=O)[C@H](CC(C)C)NC(=O)[C@H](CCCCN)NC(=O)[C@H](CCCCN)NC(=O)[C@H](CC(C)C)NC(=O)[C@H](CC(C)C)NC(=O)[C@H](CCCCN)NC(=O)[C@H](CC(C)C)NC(=O)[C@H](CC(C)C)NC(=O)[C@H](CCCCN)NC(=O)[C@H](CCCCN)NC(=O)[C@H](CC(C)C)NC(=O)CNC(=O)CNC(=O)[C@@H](N)CCCCN)C(=O)O [Formula III, KGGLKKLLKLLKKLLKL] (H-KGGLKKLLKLLKKLLKL-OH) | – | – | 62.5 | 7.8 | – |
| CC(C)C[C@H](NC(=O)[C@H](CCCCN)NC(=O)[C@H](CC(C)C)NC(=O)[C@H](CC(C)C)NC(=O)[C@H](CCCCN)NC(=O)[C@H](CCCCN)NC(=O)[C@H](CC(C)C)NC(=O)[C@H](CC(C)C)NC(=O)[C@H](CCCCN)NC(=O)[C@H](CC(C)C)NC(=O)[C@H](CC(C)C)NC(=O)[C@H](CCCCN)NC(=O)[C@H](CCCCN)NC(=O)[C@H](CC(C)C)NC(=O)CNC(=O)[C@@H](N)CCCCN)C(=O)O [Formula II, KGLKKLLKLLKKLLKL] (H-KGLKKLLKLLKKLLKL-OH) | – | – | 15.6 | 7.8 | – |
| GIGKFLHSAKKFGKAFVGEIMNS (GIGKFLHSAKKFGKAFVGEIMNS; immobilized on EDA-PepsynK resin) [EDA-PepsynK reverse magainin2, reverse magainin 2 peptide immobilized on EDA-modified PepsynK resin] | – | – | – | – | 95.14 |
| PepsynK-LKPG3K: peptide SEQ ID NO:15 covalently linked to polyamide resin PepSyn K via non-cleavable EDA linker (LKLLKKLLKLLKKLGGGK; also: covalently linked to PepSyn K resin via EDA linker) | 12.7 | 938 | – | – | – |
| SNMIEGVFAKGFKKASHLFKGIG (SNMIEGVFAKGFKKASHLFKGIG; immobilized on EDA-PepsynK resin) [EDA-PepsynK magainin2, magainin 2 immobilized on EDA-modified PepsynK resin] | – | – | – | – | 100 |
| V-F-A-K-G-F-K-K-A-S-H-L-F-K-G-I-G (VFAKGFKKASHLFKGIG; immobilized on EDA-PepsynK resin) [EDA-PepsynK magainin 17-mer deletion, 17-mer deletion peptide of magainin 2 immobilized on EDA-modified PepsynK resin] | – | – | – | – | 99.3 |
| PepsynK-KGLKP: peptide SEQ ID NO:1 covalently linked to polyamide resin PepSyn K via non-cleavable EDA linker (KGLKKLLKLLKKLLKL; also: covalently linked to PepSyn K resin via EDA linker) | > 0.7 | 888 | – | – | – |
| CC(C)C[C@H](NC(=O)[C@H](CCCCN)NC(=O)[C@H](CC(C)C)NC(=O)[C@H](CC(C)C)NC(=O)[C@H](CCCCN)NC(=O)[C@H](CCCCN)NC(=O)[C@H](CC(C)C)NC(=O)[C@H](CC(C)C)NC(=O)[C@H](CCCCN)NC(=O)[C@H](CC(C)C)NC(=O)[C@H](CC(C)C)NC(=O)[C@H](CCCCN)NC(=O)[C@H](CCCCN)NC(=O)[C@H](CC(C)C)NC(=O)CNC(=O)CNC(=O)CNC(=O)[C@@H](N)CCCCN)C(=O)O [Formula IV, KGGGLKKLLKLLKKLLKL] (H-KGGGLKKLLKLLKKLLKL-OH) | – | – | 15.6 | 7.8 | – |
